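Growth conditions: 96-well plates. Treatment: test compound, 48 hours, 5 concentrations. Analysis: linear interpolation between bracketing concentrations; unreached endpoints set to highest concentration. GI50 is the concentration that inhibits growth by half.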 Activity calls are given as the source filed them. Cut-off read from the data, not from the text of the source: active = GI50 up to about 1.1 µM and inactive = higher.
Experiments:
Experiment in all cases: inhibition of tumour cell growth, NCI panel, 48 h
[1] = test system: NCI-H522
[2] = test system: COLO 205
[3] = test system: MCF7
[4] = test system: A549
[5] = test system: EKVX
[6] = test system: LXFL 529
[7] = test system: UACC-257
[8] = test system: SF-539
[9] = test system: DMS-273
[10] = test system: SK-OV-3
[11] = test system: TK-10
[12] = test system: SNB-78
[13] = test system: OVCAR-5
[14] = test system: NCI-H460
[15] = test system: HCC 2998
[16] = test system: M19-MEL
[17] = test system: SR
[18] = test system: ACHN
[19] = test system: OVCAR-4
[20] = test system: DLD-1
[21] = test system: IGROV-1
[22] = test system: NCI-H23
[23] = test system: A498
[24] = test system: 786-0
[25] = test system: HCT-15
[26] = test system: SNB-75
[27] = test system: DU-145
[28] = test system: KM12
[29] = test system: RXF 393
[30] = test system: RPMI-8226
[31] = test system: HOP-92
[32] = test system: PC-3
[33] = test system: HCT-116
[34] = test system: SK-MEL-28
[35] = test system: SW-620
[36] = test system: RXF 631
[37] = test system: CAKI-1
[38] = test system: UACC-62
[39] = test system: SF-268
[40] = test system: CCRF-CEM
[41] = test system: M14
[42] = test system: LOX IMVI
[43] = test system: HT-29
[44] = test system: MDA-N
[45] = test system: SN12C
[46] = test system: UO-31
[47] = test system: K562
[48] = test system: XF498
[49] = test system: SF-295
[50] = test system: MDA-MB-435
[51] = test system: SK-MEL-2
[52] = test system: DMS-114
[53] = test system: OVCAR-8
[54] = test system: KM-20L2
[55] = test system: SNB-19
[56] = test system: SK-MEL-5
[57] = test system: MOLT-4
[58] = test system: MDA-MB-231
[59] = test system: NCI-H226
[60] = test system: Hs-578T
[61] = test system: Malme-3M
[62] = test system: U-251
[63] = test system: HOP-18
[64] = test system: T47D
[65] = test system: BT-549
[66] = test system: HL-60
[67] = test system: OVCAR-3
[68] = test system: HOP-62

Measured: GI50

Nc1ncnc2c(C3OC(CO)C(O)C3O)c[nH]c12 (centres undefined)
active: [1] 6.14 nM | [2] 10 nM | [3] 15.2 nM | [4] 3.99 nM | [5] 14.4 nM | [6] 4.82 nM | [7] 18.5 nM | [8] 8.13 nM | [9] 10 nM | [10] 0.552 nM | [11] 70.5 nM | [12] 10 nM | [13] 8.04 nM | [14] 2.69 nM | [15] 6.21 nM | [16] 13.9 nM | [17] 2.98 nM | [18] 1.25 nM | [19] 14.6 nM | [20] 0.728 nM | [21] 4.22 nM | [22] 13.1 nM | [23] 21.3 nM | [24] 3.17 nM | [26] 3.28 nM | [27] 6 nM | [28] 5.33 nM | [29] 3.01 nM | [30] 2.56 nM | [31] < 15 nM | [32] 5.15 nM | [33] 10 nM | [34] < 21.8 nM | [35] 1.95 nM | [36] 7.76 nM | [37] 3.06 nM | [38] 7.18 nM | [39] 10 nM | [40] 2.24 nM | [41] 12.3 nM | [42] 2.82 nM | [43] 5.6 nM | [44] 13.1 nM | [45] 3.77 nM | [46] 4.26 nM | [47] 2.38 nM | [48] 8.81 nM | [49] 10 nM | [50] 31.4 nM | [51] 10 nM | [52] 4.21 nM | [53] 2.27 nM | [54] 2.76 nM | [55] 13.1 nM | [56] 5.64 nM | [57] 3.36 nM | [58] 7.8 nM | [59] < 13.8 nM | [60] 1.29 nM | [61] < 13.5 nM | [62] 8.47 nM | [63] 8.09 nM | [64] 4.05 nM | [65] 13.8 nM
3.72 nM: [25]

COc1cc(-c2cc(CCC(=O)Nc3ccccc3[N+](=O)[O-])n(-c3ccc([N+](=O)[O-])cc3[N+](=O)[O-])n2)ccc1O
inactive: [1] > 10000 nM | [2] > 10000 nM | [66] > 10000 nM | [4] > 10000 nM | [5] > 10000 nM | [6] 44700 nM | [7] > 10000 nM | [8] > 10000 nM | [9] > 10000 nM | [10] > 10000 nM | [11] > 10000 nM | [12] > 10000 nM | [13] > 10000 nM | [14] > 10000 nM | [15] > 10000 nM | [16] > 10000 nM | [17] > 10000 nM | [18] 70600 nM | [19] > 10000 nM | [20] > 10000 nM | [21] > 10000 nM | [22] > 10000 nM | [23] > 10000 nM | [24] > 10000 nM | [26] 89900 nM | [67] > 10000 nM | [28] > 10000 nM | [29] > 10000 nM | [30] > 10000 nM | [31] > 10000 nM | [68] > 10000 nM | [33] > 10000 nM | [34] > 10000 nM | [35] > 10000 nM | [36] > 10000 nM | [37] > 10000 nM | [38] 38400 nM | [39] > 10000 nM | [40] > 10000 nM | [41] > 10000 nM | [42] > 10000 nM | [43] > 10000 nM | [45] > 10000 nM | [46] > 10000 nM | [47] 82600 nM | [48] > 100000 nM | [49] > 10000 nM | [51] > 10000 nM | [52] > 10000 nM | [53] > 10000 nM | [54] > 10000 nM | [55] > 10000 nM | [56] > 10000 nM | [57] > 10000 nM | [59] > 10000 nM | [61] > 10000 nM | [62] > 10000 nM | [63] > 10000 nM
40700 nM: [25]

From ChEMBL document CHEMBL1201862, “PubChem BioAssay data set” (2004)
